Test results published in PubChem BioAssay (NCI).
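Cultured in 96-well plates, cells were exposed to test compound for 48 hours across five concentrations. TGI denotes the concentration required for complete inhibition of growth.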

Key:
Assay in all cases: NCI anticancer screen, dose series, 48 h
[1] = system: A549 NSCLC
[2] = system: HOP-92 NSCLC
[3] = system: K-562 leukemia
[4] = system: OVCAR-8 ovarian
[5] = system: SK-MEL-2 melanoma
[6] = system: SW-620 colon
[7] = system: UACC-257 melanoma
[8] = system: BT-549 breast
[9] = system: HS 578T breast
[10] = system: MDA-MB-435

| SMILES | TGI [1] [µM] | TGI [2] [µM] | TGI [3] [µM] | TGI [4] [µM] | TGI [5] [µM] | TGI [6] [µM] | TGI [7] [µM] | TGI [8] [µM] | TGI [9] [µM] | TGI [10] [µM] |
| --- | --- | --- | --- | --- | --- | --- | --- | --- | --- | --- |
| N.N.N.O=[N+]([O-])[O-].O=[N+]([O-])[O-].O=[N+]([O-])[O-].O=[N+]([O-])[O-].[Co+3] | > 100 | > 100 | > 100 | > 100 | > 100 | > 100 | > 100 |  |  |  |
| C=C(C(=O)C(=O)Oc1ccc(Cl)cc1)C(=O)c1ccc(C)cc1 | > 100 | > 100 | > 100 | > 100 | > 100 | 36.4 | > 100 |  |  |  |
| CC1=C(O)C(=O)[C@@H]2O[C@@H]2C1=O | 99 | 17.1 | 42.7 | 24.7 | 38.1 | 13.4 | 23.9 |  |  |  |
| O=C(/C=C/c1ccc(O)c([N+](=O)[O-])c1)CC(=O)/C=C/c1ccc(O)c([N+](=O)[O-])c1 | > 100 |  |  | 39.6 | > 100 | > 100 | > 100 | > 100 | > 100 | > 100 |
| Cc1ccc(-c2c(C#N)c(-c3ccccc3)n(NS(=O)(=O)c3ccccc3)c(=O)c2C#N)cc1 | > 100 | > 100 | > 100 | > 100 | > 100 | > 100 | > 100 | > 100 |  | > 100 |
| Cc1nnc(Nc2ccccc2)o1 | > 100 |  | > 100 | > 100 | > 100 | > 100 | > 100 |  |  | > 100 |
| COc1ccc(-n2c(=O)c3[nH]cnc3n(-c3ccc(OC)cc3)c2=S)cc1 | > 100 | > 100 | > 100 | > 100 | > 100 | > 100 | > 100 | > 100 |  | > 100 |
| CCCc1cc(=O)c2c(C)c3[nH]c4ccc(Cl)cc4c3c(C)c2[nH]1 | 4.81 | 5.1 |  | 6.31 | 14.6 | 4.29 | 4.74 |  | 32.7 | 3.11 |
| CN(C)CCCOC(=O)C(c1ccccc1)C1(O)CCSCC1 (centres undefined) | > 100 | > 100 | > 100 | > 100 | > 100 | > 100 | > 100 |  | > 100 | > 100 |
| CC(C)OP(=O)(OC(C)C)c1c(Nc2ccccc2)n[nH]c1N | > 100 | > 100 | > 100 | > 100 | > 100 | > 100 | > 100 |  | > 100 | > 100 |
| CN1C(=O)N(c2ccccc2)C2(CCN(CC3COc4ccccc4O3)CC2)C1=O (centres undefined) | > 100 | > 100 | > 100 | > 100 | > 100 | 36.4 | > 100 |  | > 100 | > 100 |
| C#CCCCCC#Cc1ccccc1C(=O)OC | > 100 | 86 | 67.4 | 31.5 | > 100 | 46.1 | > 100 |  |  |  |
| COc1ccc(C(C#N)NNC(=O)c2ccccc2O)cc1OC (centres undefined) | > 100 |  | > 100 | > 100 | 78.2 | > 100 | > 100 |  |  |  |
| CC(C)(C)c1ccc2c(c1)CNCCNCc1cc(C(C)(C)C)ccc1OCC1(CO2)COc2ccc(C(C)(C)C)cc2CNCCNCc2cc(C(C)(C)C)ccc2OC1 |  | 2.58 |  | 1.45 | 2.89 | 3.56 | 3 |  |  | 1 |
| O=C(O)CSc1nnc(COc2ccc(Cl)cc2)n1-c1ccccc1 | > 100 | > 100 | > 100 | > 100 | > 100 | > 100 | > 100 |  |  | > 100 |
| CN(C)/N=N/c1nc2c(c(=O)n(C)c(=O)n2C)n1C | > 100 |  | > 100 | > 100 | > 100 | > 100 | > 100 | > 100 | > 100 | > 100 |
| O=c1[nH]n2c(=O)cc[nH]c2c1-c1nnns1 | > 100 | > 100 | > 100 |  | > 100 | > 100 |  |  |  |  |
| O=C(CCCCCCCCC(=O)NN1C(=O)/C(=C\c2ccc(O)c(O)c2)SC1c1ccc(Cl)cc1)NN1C(=O)/C(=C\c2ccc(O)c(O)c2)SC1c1ccc(Cl)cc1 (centres undefined) | > 76.8 | 43.8 | > 75.9 | 34 | > 61.8 | > 100 | > 100 | > 100 |  | > 100 |
| OCCCCCNc1c2ccccc2nc2ccccc12 | > 29.7 |  | 14.2 | 8.72 | 7.43 | 15.9 | 4.77 | 25.3 | 8.57 | 8.5 |

| SMILES | TGI [1] [µM] | TGI [2] [µM] | TGI [3] [µM] | TGI [4] [µM] | TGI [5] [µM] | TGI [6] [µM] | TGI [7] [µM] | TGI [8] [µM] | TGI [9] [µM] | TGI [10] [µM] |
| --- | --- | --- | --- | --- | --- | --- | --- | --- | --- | --- |
| COc1cc(-c2cc(=O)c3cc4c(cc3[nH]2)OCO4)cc(OC)c1O | > 10 | > 10 | > 10 | > 10 | > 10 | > 10 | > 10 |  | > 10 | > 10 |
| C/C(CCOC1CCCCO1)=C(\C)[Si](C)(C)C (centres undefined) | > 100 | > 100 | > 100 | > 100 | > 100 | > 100 | > 100 |  |  |  |
| CC1(C)CC(/C=C2/OC(=O)c3ccccc32)=C(C#N)C(=O)O1 | > 100 |  | > 100 | > 100 | > 100 | > 100 | > 100 |  |  |  |
| O=C(Nc1ccc(Br)cc1)c1c(-c2ccccc2)c2ccc(O)cc2oc1=O |  | > 10 | > 10 | > 10 | > 10 | > 10 | > 10 |  | > 10 | > 10 |
| CC(CN1c2ccccc2Sc2ccccc21)N(C)C (centres undefined) | 35.7 | 35.4 | 36.1 | 29.8 | 34.7 | 45 | 39.4 |  |  | 31.2 |
| COCCOCOc1ccc(OCc2ccccc2)cc1 | > 100 | > 100 | > 100 | > 100 | > 100 | > 100 | > 100 |  |  |  |
| OCc1ccc2[n+](c1)CCC1c3ccccc3NC21 (centres undefined) | > 300 | > 300 | > 300 | > 300 | > 300 | > 300 | > 300 |  |  |  |
| Nc1nc2cc3nc(N)c(N)nc3cc2nc1N | > 100 |  |  | > 100 | > 100 | > 100 | > 100 | > 100 | > 100 | > 100 |
| O=C1CCC[C@@H]2NC[C@@H](c3ccc4c(c3)OCO4)[C@H]12 | > 25 | > 25 | > 25 | > 25 | > 25 |  | > 25 |  | > 25 | > 25 |
| COC(=O)C(CCC#N)(CCC#N)C(=O)OC | > 100 |  | > 100 | > 100 |  | > 100 | > 100 |  |  |  |
| CC(=O)OCC(C)C1=C(O)C(=O)C2(C)C/C=C(/C)CC/C=C(\C)CCC(O)C(C)CCC12 (centres undefined) | 33.8 | 33.7 | 53.4 | 46.6 | 39.3 | 37.8 | 33.6 |  | 52.9 | 32.2 |
| CC(O[Si](c1ccccc1)(c1ccccc1)C(C)(C)C)[C@H](NC(=O)OC(C)(C)C)C(=O)O[Si](c1ccccc1)(c1ccccc1)C(C)(C)C (some centres undefined) | 27.9 | 23.2 | 40.6 | 33.6 |  | 32.1 | 28.8 |  | 44.4 |  |
| CCN1CC2=C(NC(=S)NC2c2ccc(Cl)cc2)/C(=C/c2ccc(Cl)cc2)C1 (centres undefined) | > 100 |  | > 100 | > 100 | > 100 | > 100 | > 100 | > 100 | > 100 | > 100 |
| CC(C)c1ccc2[nH]c(O)c(-c3[nH]c4ccccc4c3N=O)c2c1 | 22.2 |  | 17.8 | 14.6 | 15.1 | 25.2 | 24.5 | 19.4 | 17.7 | 20.5 |
| CCOC(=O)C1Cc2[nH]c3ccccc3c2C(C)C1C (centres undefined) | 34.8 | 32 | > 100 | 13.4 | 36 | 33.6 | 32.3 |  |  |  |
| CC(C)Sc1nc(C#N)cc2c1CCCC2 | > 100 | 93.5 | > 100 | > 100 | 63.2 | > 100 | > 100 | > 100 |  | > 100 |
| CCCCCCCCCCCCCCCCCCNc1ccn(C2OC(COP(=O)(O)OCC3OC(n4ccc(NC(=O)CCCCCCCCCCCCCCCCC)nc4=O)C(OC(C)=O)C3OC(C)=O)C(OC(C)=O)C2OC(C)=O)c(=O)n1 (centres undefined) | > 100 |  | > 100 | > 100 | > 100 | > 100 | > 100 | > 100 | > 100 | > 100 |
| NC(=O)N/N=C(\Cc1nc2ccc(Cl)cc2[nH]c1=O)C(=O)Nc1ccc(Cl)cc1Cl | > 100 |  | > 100 | > 100 | > 100 | > 100 | > 100 | > 100 | > 100 | > 100 |
